Counter-ions that a name gives are not always drawn.
How the values were obtained:
[1] = test system: Piroxicam-Induced Gastric Lesions in Rats; test: Protective effect of disodium 5'-guanylate on piroxicam-induced gastric lesions in rats; format: in vivo, CD strain (Sprague-Dawley), male; conditions: for Lesions/Rat (X +/- SE): mean (SE)
Experimental: (§1) Adult male "specific pathogen free" rats weighing 140-160 grams of the CD strain (Sprague-Dawley) were obtained from Charles River Breeding Laboratories (Kingston, N.Y.). The animals were acclimated for approximately one week and tested when they reached a body weight of 200-225 grams. The rats were fasted for 16 hours and randomized into groups consisting of 10 animals which were normalized with regard to their average body weight.
(§2) Gastric ulcers were induced in the animals by orally dosing them with a single 120 mg/kg dose of piroxicam (ethanolamine salt) in 2 ml. of aqueous 0.1% methylcellulose (pH=6.8). Those animals receiving disodium 5'-guanylate separately received the second drug in an additional 2 ml. of the same medium at about the same time. Six and one-half hours later, the animals were sacrificed by cervical dislocation and autopsied. The stomachs were surgically removed, dissected along the greater curvature and rinsed with cold water. The stomachs were individually scored for both linear and punctate lesions. The total number of lesions was used for scoring purposes. The data obtained from each group of rats was analyzed after calculation of the mean number +/- the standard error of total gastric lesions. The values obtained were also compared to the controls which received only piroxicam by the two-tailed Student's T-Test for non-paired data.

[2] = test system: Piroxicam Induced Gastric Lesions in Rats; test: Protective effect of N-acetyl-L-methionine on piroxicam induced gastric lesions in rats; format: in vivo, CD strain (Sprague-Dawley), male; conditions: for Lesions/Rat (X +/- SE): mean (SE)
Experimental: as §1, §2
By the procedure of the preceding Example, the protective effect of the N-acetyl-L-methionine on piroxicam induced gastric lesions in rats was determined.

gastric ulcers in rats = conditions: Tanaka et al. 1982, Kunimi et al. 1982; cited from earlier work
[3] = test system: gastric mucosal damage of aspirin solutions in rats; conditions: Lim et al. 1979; cited from earlier work
[4] = test system: gastrointestinal ulcers induced by the subcutaneous injection of indomethacin; conditions: Urishidani et al. 1977; cited from earlier work
[5] = stated as background for single daily dosage; cited from earlier work

Nc1nc2c(ncn2[C@@H]2O[C@H](COP(=O)(O)O)[C@@H](O)[C@H]2O)c(=O)[nH]1 [Disodium 5'-Guanylate, guanosine 5'-monophosphate]
reduction of piroxicam-induced gastric lesions ([1]; healthy fasted rat, oral): significantly reduces piroxicam-induced gastric lesions
Lesions/Rat (X +/- SE) ([1]; oral 1.0 mg/kg, 20 rats, with 120 mg/kg piroxicam ethanolamine salt): 8.1 (0.7) Lesions/Rat
Lesions/Rat (X +/- SE) ([1]; oral 3.3 mg/kg, 20 rats, with 120 mg/kg piroxicam ethanolamine salt): 5.8 (0.5) Lesions/Rat
Lesions/Rat (X +/- SE) ([1]; oral 10.0 mg/kg, 30 rats, with 120 mg/kg piroxicam ethanolamine salt): 4.6 (0.8) Lesions/Rat
Lesions/Rat (X +/- SE) ([1]; oral 33.0 mg/kg, 40 rats, with 120 mg/kg piroxicam ethanolamine salt): 3.9 (0.6) Lesions/Rat

CN1C(C(=O)Nc2ccccn2)=C(O)c2ccccc2S1(=O)=O [Ethanolamine Salt of Piroxicam, 4-hydroxy-2-methyl-N-2-pyridinyl-2H-1,2-benzothiazine-3-carboxamide 1,1-dioxide, reference compound]
Lesions/Rat (X +/- SE) ([1]; control: 120 mg/kg oral ethanolamine salt of piroxicam alone, 40 rats, 6.5 h): 8.3 (0.9) Lesions/Rat
Lesions/Rat (X +/- SE) ([2]; control: 120 mg/kg oral ethanolamine salt of piroxicam alone, 50 rats): 8.0 (0.8) Lesions/Rat

NCCC(=O)N[C@@H](Cc1cnc[nH]1)C(=O)O [L-carnosine]
prevention of the exacerbation of gastric ulcers by certain antiinflammatory agents (gastric ulcers in rats): not

CSCC[C@H](NC(C)=O)C(=O)O [N-Acetyl-L-methionine, N-acetyl-L-methionine]
ED50 ([2]; Rattus norvegicus, 6.5 h, oral, 120 mg/kg piroxicam ethanolamine salt, read-out: ED50 (dose of the N-acetylmethionine required to inhibit 50% of control gastric lesions)): 100 to 333 mg/kg
Lesions/Rat (X +/- SE) ([2]; oral 33 mg/kg, 50 rats, with 120 mg/kg piroxicam ethanolamine salt): 6.9 (0.8) Lesions/Rat
Lesions/Rat (X +/- SE) ([2]; oral 100 mg/kg, 40 rats, with 120 mg/kg piroxicam ethanolamine salt): 3.9 (0.8) Lesions/Rat
Lesions/Rat (X +/- SE) ([2]; oral 333 mg/kg, 20 rats, with 120 mg/kg piroxicam ethanolamine salt): 3.5 (0.9) Lesions/Rat

CC(=O)NCCC(=O)N[C@@H](Cc1c[nH]cn1)C(=O)O [N-acetyl-L-carnosine, N-(N-acetyl-beta-alanyl)-L-histidine]
prevention of the exacerbation of gastric ulcers by certain antiinflammatory agents (gastric ulcers in rats): not

CC(=O)NCCC(=O)N[C@@H](Cc1c[nH]cn1)C(=O)O [aluminum salts of N-acetyl-L-carnosine, N-(N-acetyl-beta-alanyl)-L-histidine]
prevention of the exacerbation of gastric ulcers by certain antiinflammatory agents (gastric ulcers in rats): prevent the exacerbation of gastric ulcers

CC(=O)N[C@@H](CCC(N)=O)C(=O)O [aluminum salts of N-acetyl-L-glutamine, N-acetyl-L-glutamine]
prevention of the exacerbation of gastric ulcers by certain antiinflammatory agents (gastric ulcers in rats): prevent the exacerbation of gastric ulcers

CSCC[C@H](N)C(=O)O [methionine]
effect on gastric mucosal damage of aspirin solutions [3]: beneficial effect
inhibition of gastrointestinal ulcers [4]: inhibit gastrointestinal ulcers

CN1C(C(=O)Nc2ccccn2)=C(O)c2ccccc2S1(=O)=O [piroxicam, 4-hydroxy-2-methyl-N-2-pyridinyl-2H-1,2-benzothiazine-3-carboxamide 1,1-dioxide]
in vivo half-life [5]: long

— patent US4994457A, “Antiinflammatory compositions and methods” (Pfizer Inc., priority 1987, dated 1991)
